According to patent US20110076293A1, “TRIPTOLIDE DERIVATIVES FOR MODULATION OF APOPTOSIS AND IMMUNOSUPPRESSION” (priority 2002, published 2011):

Tests used:
[1] = tested on: IL-2 production in Jurkat human T lymphocyte cells; assay: IL-2 production assay for activity of compounds incubated with human serum
in vitro = conditions: incomplete conversion to triptolide, 48 hr incubation
Experimental: Compounds of formula I, as shown in Table 1 above and in the Examples, were assayed for their capacity to induce apoptosis in cells from the Jurkat human T lymphocyte cell line, after incubation with pooled human serum for varying periods of time at 37° C. (see Example 19). An ester prodrug, triptolide-14-succinate, designated PG490-88, was included for comparison. The extent of conversion to triptolide after such incubation was also independently determined by HPLC analysis.
Prodrug conversions to triptolide as determined independently by HPLC are given in […].

[2] = Table 7, Jurkat cells (48 hrs), 0.001 nM
[3] = Table 7, Jurkat cells (48 hrs), 0.01 nM
[4] = Table 7, Jurkat cells (48 hrs), 0.1 nM
[5] = Table 7, Jurkat cells (48 hrs), 1 nM
[6] = Table 7, Jurkat cells (48 hrs), 10 nM
[7] = Table 7, Jurkat cells (48 hrs), 100 nM
[8] = Table 7, Jurkat cells (48 hrs), 1000 nM
[9] = Table 7, Jurkat cells (48 hrs), 10000 nM
[10] = Table 8, Jurkat cells, 0.0001 nM
[11] = Table 8, Jurkat cells, 0.001 nM
[12] = Table 8, Jurkat cells, 10000 nM

CC(C)[C@]12O[C@H]1[C@@H]1O[C@]13[C@]1(O[C@H]1C[C@H]1C4=C(CC[C@@]13C)C(=O)OC4)[C@@H]2O [PG490, Triptolide]
IL-2 pg/mL at given concentration (nM) [1, 2]: 929.7 pg/mL | IL-2 pg/mL at given concentration (nM) [1, 3]: 908.6 pg/mL | IL-2 pg/mL at given concentration (nM) [1, 4]: 937.8 pg/mL | IL-2 pg/mL at given concentration (nM) [1, 5]: 835.2 pg/mL | IL-2 pg/mL at given concentration (nM) [1, 6]: 556.1 pg/mL | IL-2 pg/mL at given concentration (nM) [1, 7]: 120.7 pg/mL | IL-2 pg/mL at given concentration (nM) [1, 8]: 62.9 pg/mL | IL-2 pg/mL at given concentration (nM) [1, 9]: 59.2 pg/mL | IL-2 pg/mL at given concentration (nM) [1, 10]: 80.0 pg/mL | IL-2 pg/mL at given concentration (nM) [1, 11]: 97.2 pg/mL | IL-2 pg/mL at given concentration (nM) ([1]; Table 8, Jurkat cells, 0.01 nM): 83.2 pg/mL | IL-2 pg/mL at given concentration (nM) ([1]; Table 8, Jurkat cells, 0.1 nM): 87.1 pg/mL | IL-2 pg/mL at given concentration (nM) ([1]; Table 8, Jurkat cells, 1 nM): 75.7 pg/mL | IL-2 pg/mL at given concentration (nM) ([1]; Table 8, Jurkat cells, 10 nM): 25.5 pg/mL | IL-2 pg/mL at given concentration (nM) ([1]; Table 8, Jurkat cells, 100 nM): 17.8 pg/mL | IL-2 pg/mL at given concentration (nM) ([1]; Table 8, Jurkat cells, 1000 nM): 12.9 pg/mL | IL-2 pg/mL at given concentration (nM) [1, 12]: 22.3 pg/mL

CCNC(=O)O[C@@H]1[C@@]2(C(C)C)O[C@H]2[C@@H]2O[C@]23[C@]12O[C@H]2C[C@H]1C2=C(CC[C@@]13C)C(=O)OC2 [PG666, Triptolide 14-Ethyl Carbamate]
concentration for equal IL-2 inhibitory activity relative to the active concentration of PG490 [1]: 10-30 times | bioactivity in IL-2 inhibition assays (in words) ([1]; FIGS. 4-5): some level of bioactivity | IL-2 pg/mL at given concentration (nM) [1, 2]: 844.6 pg/mL | IL-2 pg/mL at given concentration (nM) [1, 3]: 799.8 pg/mL | IL-2 pg/mL at given concentration (nM) [1, 4]: 860.6 pg/mL | IL-2 pg/mL at given concentration (nM) [1, 5]: 773.0 pg/mL | IL-2 pg/mL at given concentration (nM) [1, 6]: 819.1 pg/mL | IL-2 pg/mL at given concentration (nM) [1, 7]: 528.0 pg/mL | IL-2 pg/mL at given concentration (nM) [1, 8]: 180.1 pg/mL | IL-2 pg/mL at given concentration (nM) [1, 9]: 63.5 pg/mL | IL-2 pg/mL at given concentration (nM) [1, 10]: 94.3 pg/mL | IL-2 pg/mL at given concentration (nM) [1, 11]: 105.1 pg/mL | IL-2 pg/mL at given concentration (nM) ([1]; Table 8, Jurkat cells, 0.01 nM): 97.0 pg/mL | IL-2 pg/mL at given concentration (nM) ([1]; Table 8, Jurkat cells, 0.1 nM): 92.8 pg/mL | IL-2 pg/mL at given concentration (nM) ([1]; Table 8, Jurkat cells, 1 nM): 80.0 pg/mL | IL-2 pg/mL at given concentration (nM) ([1]; Table 8, Jurkat cells, 10 nM): 89.8 pg/mL | IL-2 pg/mL at given concentration (nM) ([1]; Table 8, Jurkat cells, 100 nM): 33.3 pg/mL | IL-2 pg/mL at given concentration (nM) ([1]; Table 8, Jurkat cells, 1000 nM): 10.0 pg/mL | IL-2 pg/mL at given concentration (nM) [1, 12]: 8.0 pg/mL

CC(C)[C@]12O[C@H]1[C@@H]1O[C@]13[C@]1(O[C@H]1C[C@H]1C4=C(CC[C@@]13C)C(=O)OC4)[C@@H]2OC(=O)CCC(=O)O [PG490-88, triptolide-14-succinate, reference compound]
IC50 ([1]; IL-2 production in Jurkat cells after incubation with pooled human serum for 48 hours at 37° C.): 9 nM | IL-2 pg/mL at given concentration (nM) [1, 2]: 776.4 pg/mL | IL-2 pg/mL at given concentration (nM) [1, 3]: 771.0 pg/mL | IL-2 pg/mL at given concentration (nM) [1, 4]: 809.5 pg/mL | IL-2 pg/mL at given concentration (nM) [1, 5]: 732.4 pg/mL | IL-2 pg/mL at given concentration (nM) [1, 6]: 605.1 pg/mL | IL-2 pg/mL at given concentration (nM) [1, 7]: 317.5 pg/mL | IL-2 pg/mL at given concentration (nM) [1, 8]: 65.9 pg/mL | IL-2 pg/mL at given concentration (nM) [1, 9]: 58.2 pg/mL | IL-2 pg/mL at given concentration (nM) [1, 10]: 96.1 pg/mL | IL-2 pg/mL at given concentration (nM) [1, 11]: 83.0 pg/mL | IL-2 pg/mL at given concentration (nM) ([1]; Table 8, Jurkat cells, 0.01 nM): 87.5 pg/mL | IL-2 pg/mL at given concentration (nM) ([1]; Table 8, Jurkat cells, 0.1 nM): 86.3 pg/mL | IL-2 pg/mL at given concentration (nM) ([1]; Table 8, Jurkat cells, 1 nM): 88.2 pg/mL | IL-2 pg/mL at given concentration (nM) ([1]; Table 8, Jurkat cells, 10 nM): 42.7 pg/mL | IL-2 pg/mL at given concentration (nM) ([1]; Table 8, Jurkat cells, 100 nM): 14.0 pg/mL | IL-2 pg/mL at given concentration (nM) ([1]; Table 8, Jurkat cells, 1000 nM): 8.4 pg/mL | IL-2 pg/mL at given concentration (nM) [1, 12]: 23.8 pg/mL | Conversion (%) ([1]; percent of the IC50 value produced by triptolide (PG490) in the same experiment, human serum 48 hours): 51% | max. conversion at 48 hr in human plasma by HPLC (in vitro): max. 26%
